Assay results from article PMC4447944 (The Journal of Biological Chemistry, 2015).
pIC50: −log10 of the molar value.

Legend:
hRET(V804L) = biological target: T1, hRET(V804L) (Homo sapiens, UniProt P07949, V804L); test: KINOMEscan; type: binding
T1 construct: purchased DiscoverX (KINOMEscan platform)

MDA MB-231 cells = test: Proliferation assay (CellTiter-Glo); type: cell-based, human
Procedure: Cell viability was measured using CellTiter-Glo^TM (Promega) according to the manufacturer's instructions.

hIRAK3 = biological target: T2, hIRAK3 (Homo sapiens, UniProt Q9Y616); test: KINOMEscan; type: binding
T2 construct: purchased DiscoverX (KINOMEscan panel)

hFLT3(D835H) = biological target: T3, hFLT3(D835H) (Homo sapiens, UniProt P36888, D835H); test: KINOMEscan; type: binding
T3 construct: purchased DiscoverX

hLATS1 = biological target: T4, hLATS1 (Homo sapiens, UniProt O95835); test: KINOMEscan; type: binding
T4 construct: purchased DiscoverX (KINOMEscan platform)

hFLT3(ITD) = test: KINOMEscan; type: binding, human
hTNIK = biological target: T5, hTNIK (Homo sapiens, UniProt Q9UKE5); test: KINOMEscan; type: binding
T5 construct: purchased DiscoverX

hLOK = biological target: T6, hLOK (Homo sapiens, UniProt O94804); test: KINOMEscan; type: binding
T6 construct: purchased DiscoverX (KINOMEscan platform)

hHIPK1 = biological target: T7, hHIPK1 (Homo sapiens, UniProt Q86Z02); test: KINOMEscan; type: binding
T7 construct: purchased DiscoverX

hTXK = biological target: T8, hTXK (Homo sapiens, UniProt P42681); test: KINOMEscan; type: binding
T8 construct: purchased DiscoverX

hD2L = hD2L (Homo sapiens, UniProt P14416); test: cAMP Agonist (Eurofins-CEREP); conditions: @ 10 μM
hCAMKK2 = biological target: T9, hCAMKK2 (Homo sapiens, UniProt Q96RR4); test: KINOMEscan; type: binding
T9 construct: purchased DiscoverX

hCAMK2G = biological target: T10, hCAMK2G (Homo sapiens, UniProt Q13555); test: KINOMEscan; type: binding
T10 construct: purchased DiscoverX

hITK = biological target: T11, hITK (Homo sapiens, UniProt Q08881); test: KINOMEscan; type: binding
T11 construct: purchased DiscoverX (KINOMEscan panel)

hCAMK1 = biological target: T12, hCAMK1 (Homo sapiens, UniProt Q14012); test: KINOMEscan; type: binding
T12 construct: purchased DiscoverX

hLIMK1 = biological target: T13, hLIMK1 (Homo sapiens, UniProt P53667); test: KINOMEscan; type: binding
T13 construct: purchased DiscoverX (KINOMEscan platform)

hMAPKAPK2 = biological target: T14, hMAPKAPK2 (Homo sapiens, UniProt P49137); test: KINOMEscan; type: binding
T14 construct: purchased DiscoverX

hACVR1 = biological target: T15, hACVR1 (Homo sapiens, UniProt Q04771); test: KINOMEscan; type: binding
T15 construct: purchased DiscoverX (KINOMEscan platform)

hMEK2 = biological target: T16, hMEK2 (Homo sapiens, UniProt P36507); test: KINOMEscan; type: binding
T16 construct: purchased DiscoverX

hTRKC = biological target: T17, hTRKC (Homo sapiens, UniProt Q16288); test: KINOMEscan; type: binding
T17 construct: purchased DiscoverX

hFYN = biological target: T18, hFYN (Homo sapiens, UniProt P06241); test: KINOMEscan; type: binding
T18 construct: purchased DiscoverX

hAURKC = biological target: T19, hAURKC (Homo sapiens, UniProt Q9UQB9); test: KINOMEscan; type: binding
T19 construct: purchased DiscoverX

hICK = biological target: T20, hICK (Homo sapiens, UniProt Q9UPZ9); test: KINOMEscan; type: binding
T20 construct: purchased DiscoverX (KINOMEscan panel)

hINSRR = biological target: T21, hINSRR (Homo sapiens, UniProt P14616); test: KINOMEscan; type: binding
T21 construct: purchased DiscoverX (KINOMEscan panel)

hCHEK1 = biological target: T22, hCHEK1 (Homo sapiens, UniProt O14757); test: KINOMEscan; type: binding
T22 construct: purchased DiscoverX

hMARK4 = biological target: T23, hMARK4 (Homo sapiens, UniProt Q96L34); test: KINOMEscan; type: binding
T23 construct: purchased DiscoverX

hADRα1A = biological target: T24, hADRα1A (Homo sapiens, UniProt P35348); test: Calcium Mobilization Antagonist (Eurofins-CEREP); conditions: read-out: % Effect, Inhibition
T24 sequence (P35348 1-466): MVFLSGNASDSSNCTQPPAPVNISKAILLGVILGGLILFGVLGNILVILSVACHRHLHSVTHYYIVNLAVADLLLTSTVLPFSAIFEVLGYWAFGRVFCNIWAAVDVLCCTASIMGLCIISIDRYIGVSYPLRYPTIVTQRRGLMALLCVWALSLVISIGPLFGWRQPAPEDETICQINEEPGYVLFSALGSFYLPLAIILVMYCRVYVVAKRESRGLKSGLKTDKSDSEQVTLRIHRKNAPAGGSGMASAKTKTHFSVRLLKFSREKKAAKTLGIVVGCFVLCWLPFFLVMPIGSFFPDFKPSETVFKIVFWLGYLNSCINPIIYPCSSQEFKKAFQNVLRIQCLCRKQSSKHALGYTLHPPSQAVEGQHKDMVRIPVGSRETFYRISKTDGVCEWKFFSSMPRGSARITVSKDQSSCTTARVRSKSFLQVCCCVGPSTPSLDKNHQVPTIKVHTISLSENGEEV

hERBB3 = biological target: T25, hERBB3 (Homo sapiens, UniProt P21860); test: KINOMEscan; type: binding
T25 construct: purchased DiscoverX

hMAP3K1 = biological target: T26, hMAP3K1 (Homo sapiens, UniProt Q13233); test: KINOMEscan; type: binding
T26 construct: purchased DiscoverX (KINOMEscan platform)

hADCK4 = biological target: T27, hADCK4 (Homo sapiens, UniProt Q96D53); test: KINOMEscan; type: binding
T27 construct: purchased DiscoverX

hSTK36 = biological target: T28, hSTK36 (Homo sapiens, UniProt Q9NRP7); test: KINOMEscan; type: binding
T28 construct: purchased DiscoverX (KINOMEscan platform)

hCAMKK1 = biological target: T29, hCAMKK1 (Homo sapiens, UniProt Q8N5S9); test: KINOMEscan; type: binding
T29 construct: purchased DiscoverX

hDLK = biological target: T30, hDLK (Homo sapiens, UniProt Q12852); test: KINOMEscan; type: binding
T30 construct: purchased DiscoverX (KINOMEscan platform)
T30 sequence (Q12852 whole entry): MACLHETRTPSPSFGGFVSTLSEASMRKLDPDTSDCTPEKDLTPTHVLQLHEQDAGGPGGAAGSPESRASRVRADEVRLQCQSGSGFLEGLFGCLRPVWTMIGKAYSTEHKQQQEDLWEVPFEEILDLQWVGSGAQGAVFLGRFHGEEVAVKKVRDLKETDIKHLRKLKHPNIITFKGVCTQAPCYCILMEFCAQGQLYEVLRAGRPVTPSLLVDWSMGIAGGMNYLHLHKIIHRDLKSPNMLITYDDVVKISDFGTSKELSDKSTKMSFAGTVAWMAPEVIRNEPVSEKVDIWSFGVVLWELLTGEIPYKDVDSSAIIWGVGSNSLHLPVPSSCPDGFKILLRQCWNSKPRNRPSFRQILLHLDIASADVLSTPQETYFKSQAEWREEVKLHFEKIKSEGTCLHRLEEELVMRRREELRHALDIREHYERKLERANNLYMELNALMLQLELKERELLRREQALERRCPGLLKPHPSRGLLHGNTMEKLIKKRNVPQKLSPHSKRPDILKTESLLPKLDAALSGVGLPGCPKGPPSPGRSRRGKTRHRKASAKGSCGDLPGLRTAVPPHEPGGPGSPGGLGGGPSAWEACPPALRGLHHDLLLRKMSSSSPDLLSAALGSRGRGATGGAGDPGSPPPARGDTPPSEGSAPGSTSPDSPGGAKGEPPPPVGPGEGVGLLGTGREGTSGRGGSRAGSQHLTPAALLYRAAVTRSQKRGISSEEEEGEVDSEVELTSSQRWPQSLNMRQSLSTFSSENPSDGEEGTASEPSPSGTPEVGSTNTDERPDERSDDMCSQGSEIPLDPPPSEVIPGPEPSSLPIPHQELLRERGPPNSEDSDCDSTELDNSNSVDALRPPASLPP

T27 sequence (Q96D53 whole entry): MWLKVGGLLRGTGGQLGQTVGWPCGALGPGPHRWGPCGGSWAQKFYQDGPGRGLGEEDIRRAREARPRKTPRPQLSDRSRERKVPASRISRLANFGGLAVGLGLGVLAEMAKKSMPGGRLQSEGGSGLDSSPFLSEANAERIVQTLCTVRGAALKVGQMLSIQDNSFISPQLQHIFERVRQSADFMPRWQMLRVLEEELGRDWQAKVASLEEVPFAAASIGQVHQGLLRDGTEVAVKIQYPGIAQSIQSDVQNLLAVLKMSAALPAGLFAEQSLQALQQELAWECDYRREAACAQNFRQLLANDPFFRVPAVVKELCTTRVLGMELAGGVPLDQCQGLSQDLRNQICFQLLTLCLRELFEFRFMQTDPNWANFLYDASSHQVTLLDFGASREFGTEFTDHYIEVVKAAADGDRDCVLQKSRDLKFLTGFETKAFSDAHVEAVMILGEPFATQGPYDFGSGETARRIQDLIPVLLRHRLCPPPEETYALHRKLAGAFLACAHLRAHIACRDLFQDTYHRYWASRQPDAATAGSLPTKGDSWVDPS
T2 sequence (Q9Y616 whole entry): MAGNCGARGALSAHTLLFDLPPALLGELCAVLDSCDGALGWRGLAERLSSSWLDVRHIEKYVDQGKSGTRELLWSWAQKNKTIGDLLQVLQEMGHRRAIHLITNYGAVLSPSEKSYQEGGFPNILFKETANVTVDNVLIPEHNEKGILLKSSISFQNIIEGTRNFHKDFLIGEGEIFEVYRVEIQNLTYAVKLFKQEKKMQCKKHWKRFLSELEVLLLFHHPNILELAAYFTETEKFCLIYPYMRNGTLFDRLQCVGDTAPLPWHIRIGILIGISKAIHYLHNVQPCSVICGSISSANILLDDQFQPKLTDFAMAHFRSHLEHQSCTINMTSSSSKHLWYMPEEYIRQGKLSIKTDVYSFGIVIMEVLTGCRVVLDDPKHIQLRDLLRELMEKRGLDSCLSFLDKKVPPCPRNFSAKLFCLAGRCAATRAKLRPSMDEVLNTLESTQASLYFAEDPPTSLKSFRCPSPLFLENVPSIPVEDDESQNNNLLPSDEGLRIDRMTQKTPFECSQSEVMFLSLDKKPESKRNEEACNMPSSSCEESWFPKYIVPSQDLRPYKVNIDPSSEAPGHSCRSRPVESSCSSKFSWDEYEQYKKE
T14 sequence (P49137 whole entry): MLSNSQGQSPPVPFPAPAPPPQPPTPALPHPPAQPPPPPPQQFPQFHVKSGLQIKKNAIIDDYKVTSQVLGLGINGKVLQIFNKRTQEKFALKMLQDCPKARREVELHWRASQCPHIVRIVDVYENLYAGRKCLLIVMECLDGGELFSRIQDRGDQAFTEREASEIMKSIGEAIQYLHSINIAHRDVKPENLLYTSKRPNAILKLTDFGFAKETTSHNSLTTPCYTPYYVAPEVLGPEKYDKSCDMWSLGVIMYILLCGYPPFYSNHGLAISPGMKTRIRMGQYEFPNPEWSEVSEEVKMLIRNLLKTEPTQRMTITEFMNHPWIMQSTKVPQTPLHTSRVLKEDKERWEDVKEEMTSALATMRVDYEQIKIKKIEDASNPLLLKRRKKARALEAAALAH
T4 sequence (O95835 whole entry): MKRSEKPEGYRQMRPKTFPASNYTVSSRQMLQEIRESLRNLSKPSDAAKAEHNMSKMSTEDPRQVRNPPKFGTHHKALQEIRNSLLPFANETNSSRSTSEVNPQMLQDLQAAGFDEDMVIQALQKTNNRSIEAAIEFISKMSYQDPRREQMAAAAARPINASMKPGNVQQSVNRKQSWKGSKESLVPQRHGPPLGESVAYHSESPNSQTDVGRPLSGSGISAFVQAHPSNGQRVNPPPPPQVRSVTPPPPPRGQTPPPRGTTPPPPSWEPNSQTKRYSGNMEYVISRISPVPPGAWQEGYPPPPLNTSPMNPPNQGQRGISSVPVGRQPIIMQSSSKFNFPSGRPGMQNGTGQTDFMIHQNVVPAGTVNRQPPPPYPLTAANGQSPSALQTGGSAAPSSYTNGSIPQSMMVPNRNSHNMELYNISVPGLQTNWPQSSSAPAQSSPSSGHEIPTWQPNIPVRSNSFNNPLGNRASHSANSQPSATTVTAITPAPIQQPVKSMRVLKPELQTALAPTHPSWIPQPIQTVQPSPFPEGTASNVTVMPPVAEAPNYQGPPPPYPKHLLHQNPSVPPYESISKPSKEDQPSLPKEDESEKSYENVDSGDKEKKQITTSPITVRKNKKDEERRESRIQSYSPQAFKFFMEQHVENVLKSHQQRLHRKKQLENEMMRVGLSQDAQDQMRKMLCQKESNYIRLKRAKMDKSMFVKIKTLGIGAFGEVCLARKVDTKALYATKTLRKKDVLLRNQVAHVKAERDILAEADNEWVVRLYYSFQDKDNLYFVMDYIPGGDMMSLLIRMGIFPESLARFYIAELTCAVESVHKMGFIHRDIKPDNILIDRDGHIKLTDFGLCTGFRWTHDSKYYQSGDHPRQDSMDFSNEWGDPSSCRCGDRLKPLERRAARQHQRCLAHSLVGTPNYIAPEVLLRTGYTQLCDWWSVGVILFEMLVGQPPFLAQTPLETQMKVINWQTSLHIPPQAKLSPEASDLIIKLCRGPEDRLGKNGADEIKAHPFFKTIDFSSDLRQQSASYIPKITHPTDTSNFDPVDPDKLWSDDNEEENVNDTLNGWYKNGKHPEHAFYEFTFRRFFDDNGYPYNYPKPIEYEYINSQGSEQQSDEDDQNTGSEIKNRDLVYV
T9 sequence (Q96RR4 whole entry): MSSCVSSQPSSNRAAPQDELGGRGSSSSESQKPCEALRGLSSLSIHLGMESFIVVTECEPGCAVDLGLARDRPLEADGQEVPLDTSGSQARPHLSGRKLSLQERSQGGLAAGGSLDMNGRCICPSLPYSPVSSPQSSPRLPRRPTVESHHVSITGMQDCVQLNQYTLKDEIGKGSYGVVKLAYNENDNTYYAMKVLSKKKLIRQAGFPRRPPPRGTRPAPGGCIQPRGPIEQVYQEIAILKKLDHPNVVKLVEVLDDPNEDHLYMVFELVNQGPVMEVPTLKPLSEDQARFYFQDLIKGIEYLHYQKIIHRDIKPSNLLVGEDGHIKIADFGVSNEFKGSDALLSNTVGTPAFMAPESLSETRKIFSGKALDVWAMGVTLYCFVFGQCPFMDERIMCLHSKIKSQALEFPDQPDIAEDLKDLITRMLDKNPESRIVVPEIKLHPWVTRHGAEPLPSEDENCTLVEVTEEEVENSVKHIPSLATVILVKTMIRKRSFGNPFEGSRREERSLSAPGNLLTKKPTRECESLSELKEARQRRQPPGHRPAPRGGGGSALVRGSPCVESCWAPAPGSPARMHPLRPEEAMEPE
T13 sequence (P53667 whole entry): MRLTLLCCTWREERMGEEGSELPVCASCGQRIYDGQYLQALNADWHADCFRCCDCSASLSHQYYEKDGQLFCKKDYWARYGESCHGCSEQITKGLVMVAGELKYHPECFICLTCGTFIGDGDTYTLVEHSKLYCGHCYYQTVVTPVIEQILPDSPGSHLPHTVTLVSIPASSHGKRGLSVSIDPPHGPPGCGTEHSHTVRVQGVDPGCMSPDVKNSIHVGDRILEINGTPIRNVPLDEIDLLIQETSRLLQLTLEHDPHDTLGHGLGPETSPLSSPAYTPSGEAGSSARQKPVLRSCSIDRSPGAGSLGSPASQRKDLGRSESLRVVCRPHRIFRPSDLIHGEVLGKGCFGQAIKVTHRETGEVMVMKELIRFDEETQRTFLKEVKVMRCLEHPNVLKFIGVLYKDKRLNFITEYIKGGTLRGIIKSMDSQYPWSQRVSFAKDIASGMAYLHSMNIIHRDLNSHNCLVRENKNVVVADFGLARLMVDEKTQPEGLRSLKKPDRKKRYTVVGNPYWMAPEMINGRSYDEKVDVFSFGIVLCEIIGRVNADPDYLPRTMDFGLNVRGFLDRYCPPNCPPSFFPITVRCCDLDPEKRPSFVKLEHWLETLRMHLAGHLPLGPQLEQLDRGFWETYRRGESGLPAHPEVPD

For Cc1cn(CCN2CCN(c3ccccc3-c3cc(C#N)cc(C(=O)NCCCN4CCCC4)c3)CC2)c2ccccc12 [LLY-507, 3-cyano-5-{2-[4-[2-(3-methylindol-1-yl)ethyl]piperazin-1-yl]-phenyl}-N-[(3-pyrrolidin-1-yl)propyl]benzamide], the pIC50 (hRET(V804L)) was under 4.70, the “increase in sensitivity at 7 days compared with 3 to 4-day treatment” value (MDA MB-231 cells) was over 5 fold and the pIC50 (hIRAK3) was under 4.70. It also gave a pIC50 (hFLT3(D835H)) of under 4.70, a pIC50 (hLATS1) of under 4.70 and a pIC50 (hFLT3(ITD)) of under 4.70. For the same compound, the pIC50 (hTNIK) was under 4.70, the pIC50 (hLOK) was under 4.70 and the pIC50 (hHIPK1) was under 4.70. The pIC50 (hTXK) was under 4.70, the “% Effect, Stimulation” value (hD2L) was 10.1% and the pIC50 (hCAMKK2) was under 4.70. For the same compound, the pIC50 (hCAMK2G) was under 4.70, the pIC50 (hITK) was under 4.70 and the pIC50 (hCAMK1) was under 4.70. For the same compound, the pIC50 (hLIMK1) was under 4.70, the pIC50 (hMAPKAPK2) was under 4.70 and the pIC50 (hACVR1) was under 4.70. The pIC50 (hMEK2) was under 4.70, the pIC50 (hTRKC) was under 4.70 and the pIC50 (hFYN) was under 4.70. For the same compound, the pIC50 (hAURKC) was under 4.70, the pIC50 (hICK) was under 4.70 and the pIC50 (hINSRR) was under 4.70. For the same compound, the pIC50 (hCHEK1) was under 4.70, the pIC50 (hMARK4) was under 4.70 and the inhibition at 10 µM (hADRα1A) was 98%. For the same compound, the pIC50 (hERBB3) was under 4.70, the pIC50 (hMAP3K1) was under 4.70 and the pIC50 (hADCK4) was under 4.70. The pIC50 (hSTK36) was under 4.70, the pIC50 (hCAMKK1) was under 4.70 and the pIC50 (hDLK) was under 4.70.
